Laboratory results taken from US7595320B2, “Hydrazinocarbonyl-thieno[2,3-C]pyrazoles, process for preparing them, compositions containing them and use thereof” (Aventis Pharma S.A., priority 2005, dated 2009).
Where a name gives a salt, the structure may show the parent alone.

How the values were obtained:
Format in all cases: biochemical
Aurora1 = biological target: T1, Aurora1 (Homo sapiens, UniProt Q96GD4); assay: Aurora1 enzymatic test, NuMA phosphorylation with [33P]ATP, Flashplate; conditions: Aurora-B/INCENP-C3 recombinant complex, 1 μM ATP
T1 construct: His tag (N); made in house
T1 sequence (Q96GD4 whole entry, species assumed): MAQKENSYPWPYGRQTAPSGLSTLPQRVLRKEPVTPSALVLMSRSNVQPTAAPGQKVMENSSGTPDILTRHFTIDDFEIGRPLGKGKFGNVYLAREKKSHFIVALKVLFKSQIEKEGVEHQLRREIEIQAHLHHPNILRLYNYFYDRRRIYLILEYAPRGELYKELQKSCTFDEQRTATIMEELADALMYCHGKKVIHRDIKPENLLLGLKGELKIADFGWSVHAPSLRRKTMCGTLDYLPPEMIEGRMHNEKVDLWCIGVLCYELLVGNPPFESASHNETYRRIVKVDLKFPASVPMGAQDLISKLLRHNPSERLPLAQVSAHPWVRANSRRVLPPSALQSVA
T1 sequence (Q9NQS7 835-903 partner limits assumed, species assumed): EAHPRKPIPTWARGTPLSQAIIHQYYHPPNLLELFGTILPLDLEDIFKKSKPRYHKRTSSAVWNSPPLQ
Protocol: (§1) The inhibitory effect of compounds with respect to the kinases Aurora1 and Aurora2 is determined by means of an enzymatic test using radioactivity detection.
(§2) The kinase activity of Aurora1 and Aurora2 is evaluated via the phosphorylation of the substrate Numa-histidine in the presence of radiolabelled ATP ([^33P]ATP) using 96-well Flashplate plates in which the nickel chelate is bound to the surface of the microplate. The amount of ^33P phosphate incorporated into the NuMA substrate is proportional to the activity of the enzyme Aurora1 or Aurora2.
Aurora1: Aurora-B/INCENP-C3 recombinant complex, purified to about 50%, the N-terminal end of Aurora-B of which has been labeled with histidine.
(§3) NuMA (nuclear protein that combines with the mitotic apparatus): 424-amino acid fragment, expressed in E. coli, the N-terminal end of which has been labeled with histidine, and used as substrate for the two Aurora enzymes.
(§4) The microplates used are 96-well Flash-Plate plates, nickel chelate (Perkin-Elmer, model SMP107).
(§5) The products to be evaluated are incubated in a reaction volume of 100 μL per well, in the presence of 10 nM of Aurora1 or Aurora2, 500 nM of NuMA substrate in a buffer composed of 50 mM Tris/HCl (pH 7.5), 50 mM NaCl, 5 mM MgCl2 (Aurora-B) or 10 mM MgCl2 (Aurora-A) and 1 mM DTT, at 37° C.
(§6) 80 μL of enzyme/substrate incubation buffer are distributed in each well, followed by 10 μL of product to be evaluated, at variable concentrations. The reaction is initiated by adding 1 μM final of ATP containing 0.2 μCi of [^33P]ATP (10 μL). After incubating for 30 minutes, the reaction is quenched by simple removal of the reaction buffer and each well is washed twice with 300 μl of Tris/HCl buffer. The radioactivity is then measured in each well using a Packard, Top-Count model scintillation machine.
(§7) The control enzymatic activity of Aurora is expressed by the number of counts per minute obtained over 30 minutes after subtracting the background noise (reaction mixture containing no enzyme). The evaluation of the various test products is expressed as a percentage of inhibition of the Aurora activity relative to the control.

Aurora2 = biological target: T2, Aurora2 (Homo sapiens, UniProt O14965); assay: Aurora2 enzymatic test, NuMA phosphorylation with [33P]ATP, Flashplate; conditions: whole recombinant protein, 1 μM ATP
T2 construct: Aurora2: whole recombinant protein comprising an N-terminal histidine tail; His tag (N); made in house; host or cells: E. coli
T2 sequence (O14965 1-403): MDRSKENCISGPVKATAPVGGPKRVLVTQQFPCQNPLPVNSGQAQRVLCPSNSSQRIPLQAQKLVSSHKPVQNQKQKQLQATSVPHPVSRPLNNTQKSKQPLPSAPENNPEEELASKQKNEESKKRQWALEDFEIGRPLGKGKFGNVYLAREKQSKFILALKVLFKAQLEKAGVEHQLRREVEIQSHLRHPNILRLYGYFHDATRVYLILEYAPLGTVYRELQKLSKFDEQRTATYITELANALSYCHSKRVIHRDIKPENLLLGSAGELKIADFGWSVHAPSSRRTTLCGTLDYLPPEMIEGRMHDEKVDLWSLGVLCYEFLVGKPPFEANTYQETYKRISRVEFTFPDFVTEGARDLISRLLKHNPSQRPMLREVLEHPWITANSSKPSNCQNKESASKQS
Protocol: as §1, §2
Aurora2: whole recombinant protein comprising an N-terminal histidine tail, was expressed in E. coli and purified to more than 82%.
as §3, §4, §5, §6, §7

CDK2/cycline E = biological target: T3, CDK2/cycline E (Homo sapiens, UniProt P24941); assay: CDK2/cyclineE Flashplate test in 96-well format; conditions: CDK2/cycline E complex, 1 μM ATP
T3 construct: made in house; host or cells: Sf21 insect cells (baculovirus coinfection)
Protocol: Two recombinant baculoviruses bearing the human sequences coding, respectively, for CDK2 and cyclineE (the latter bearing a C-terminal hexahistidine tag) are used to coinfect Sf21 insect cells. Two to three days after the start of coinfection, the cells are harvested by centrifugation and then stored at −40° C. until the time of use.
A format in streptavidin-coated 96-well plates is used to test the activity of the compounds on the kinase activity of CDK2/cycline E.
To perform this test, the biotinylated peptide substrate, a fragment of the protein pRb (biotinyl-[…]-OH), is dissolved at a concentration of 1 mM in kinase buffer (HEPES/NaOH 50 mM, NaCl 1 mM, MgCl2 5 mM, pH 7.5) in order to constitute a stock solution stored at −20° C. in the form of 110 μL aliquots. On the day of the experiment, an aliquot of this solution is thawed and diluted in kinase buffer containing 1 mM of dithiothreitol, added to the buffer extemporaneously, in order to obtain a concentration of 14.3 μM. 70 μL of this solution are added to each well of the Flashplate in order to obtain a final substrate concentration of 10 μM during the enzymatic reaction performed in a final volume of the reaction medium of 100 μL (cf. below).
Intermediate dilutions of inhibitors (products of the invention) at various concentrations are prepared in DMSO from stock solutions at 10 mM in separate tubes. Dilutions at 1000 μM, 333.3 μM, 111.1 μM, 37.03 μM, 12.35 μM, 4.11 μM and 1.37 μM are thus prepared. One μL of each of these solutions (or 1 μL of DMSO for the controls) is transferred into the wells of the test plate.
19 μl of a solution of a mixture of adenosine triphosphate (ATP) and of ATPγ^33P in kinase buffer at a total concentration of 5.26 μM of ATP and 52.6 μCi/ml of ^33P are then added to each well. The enzymatic reaction is initiated by adding 10 μL per well of a 200 nM solution of CDK2/cycline E in kinase buffer containing 1 mM of dithiothreitol (or 10 μL of kinase buffer containing 1 mM of dithiothreitol for the reaction blanks).
After addition of each of the reagents, the final volume of each well is 100 μL, the final concentration of substrate is 10 μM, the final inhibitor concentrations are 10 μM, 3.33 μM, 1.11 μM, 0.37 μM, 0.123 μM, 0.041 μM and 0.014 μM (according to the concentration of the intermediate dilution), the final ATP concentration is 1 μM, the final amount of ^33P is 1 μCi/well, and the final concentration of CDK2/cycline E complex is 20 nM.
After addition of all of the reagents, the test plate is incubated at 30° C. with orbital shaking at 650 rpm.
When the incubation is complete, the plate is washed three times with 300 μL per well of PBS (phosphate-buffered saline, pH=7.4, without calcium or magnesium, reference 10010-015, Gibco BRL). The incorporation of ^33P to the peptide is quantified by scintillation counting with a Packard Topcount.NXT machine.

Tie2 = biological target: T4, Tie2 (Homo sapiens, UniProt Q02763); assay: Tie2 kinase test, phosphorylation of PLC with GST-Tie2; conditions: GST-Tie2 intracellular domain 776-1124
T4 construct: amino acids of the intracellular domain 776-1124; made in house; host or cells: baculovirus expression (pFastBacGT vector)
T4 sequence (Q02763 776-1124): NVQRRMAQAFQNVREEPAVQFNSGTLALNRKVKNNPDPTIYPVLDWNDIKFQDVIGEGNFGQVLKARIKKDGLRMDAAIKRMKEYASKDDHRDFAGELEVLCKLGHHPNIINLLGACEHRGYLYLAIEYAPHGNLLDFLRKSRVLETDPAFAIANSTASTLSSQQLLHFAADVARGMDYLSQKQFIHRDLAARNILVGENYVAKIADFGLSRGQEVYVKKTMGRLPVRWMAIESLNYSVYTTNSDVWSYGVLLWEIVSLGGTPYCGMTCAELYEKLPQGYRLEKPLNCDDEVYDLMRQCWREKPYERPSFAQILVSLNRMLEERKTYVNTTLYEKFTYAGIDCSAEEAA
Protocol: The coding sequence of human Tie2 corresponding to the amino acids of the intracellular domain 776-1124 was generated by PCR using the cDNA isolated from a human placenta as a model. This sequence was introduced into a pFastBacGT baculovirus expression vector in the form of a GST fusion protein.
The inhibitory effect of the molecules is determined in a test of phosphorylation of PLC with Tie2 in the presence of GST-Tie2 purified to about 80% homogeneity. The substrate is composed of the SH2-SH3 fragments of PLC expressed in the form of a GST fusion protein.
The kinase activity of Tie2 is measured in a MOPS 20 mM pH 7.2 buffer, containing 10 mM MgCl2, 10 mM MnCl2, 1 mM DTT, 10 mM of glycerophosphate. In a 96-well FlashPlate plate maintained on ice, a reaction mixture is deposited, composed of 70 μL of kinase buffer containing 100 ng of enzyme GST-Tie2 per well. Next, 10 μL of the test molecule diluted in DMSO to a maximum concentration of 10% are added. For a given concentration, each measurement is performed four times. The reaction is initiated by adding 20 μL of solution containing 2 μg of GST-PLC, 2 μm of cold ATP and 1 μCi of ^33P[ATP]. After incubation for one hour at 37° C., the reaction is stopped by adding 1 volume (100 μl) of 200 mM EDTA. After removal of the incubation buffer, the wells are washed three times with 300 μL of PBS. The radioactivity is measured on a MicroBeta1450 Wallac.
The inhibition of the Tie2 activity is calculated and expressed as a percentage of inhibition relative to the control activity determined in the absence of compound.

| Structure (SMILES) | IC50 (Aurora1) [nM] | IC50 (Aurora2) [nM] | IC50 (CDK2/cycline E) [nM] | IC50 (Tie2) [nM] |
| --- | --- | --- | --- | --- |
| COc1ccc(C(=O)Nc2n[nH]c3sc(C(=O)NNc4ccccn4)cc23)cc1 [Example 27, 4-methoxy-N-[5-(N′-pyrid-2-ylhydrazinocarbonyl)-1H-thieno[2,3-c]pyrazol-3-yl]benzamide] | 51 | 31 | 669 | 294 |
| CC(C)CN(NC(=O)c1cc2c(NC(=O)c3ccc(N4CCN(C)CC4)cc3)n[nH]c2s1)c1ccc(F)cc1 [Example 42, N-{5-[N′-(4-fluorophenyl)-N′-isobutylhydrazinocarbonyl]-1H-thieno[2,3-c]pyrazol-3-yl}-4-(4-methylpiperazin-1-yl)benzamide] | 24 | 6 | 1120 | 61 |
| CN(NC(=O)c1cc2c(NC(=O)c3ccc(CN4CCC4)cc3)n[nH]c2s1)c1ccccc1 [Example 19, 4-azetidin-1-ylmethyl-N-[5-(N′-methyl-N′-phenylhydrazinocarbonyl)-1H-thieno[2,3-c]pyrazol-3-yl]benzamide] | 304 | 26 | 239 | 888 |
| CCc1ccccc1NNC(=O)c1cc2c(NC(=O)c3ccc(OC)cc3)n[nH]c2s1 [Example 5, N-{5-[N′-(2-ethylphenyl)hydrazinocarbonyl]-1H-thieno[2,3-c]pyrazol-3-yl}-4-methoxybenzamide] | 33 | 28 | 664 | 75 |
| COc1ccc(C(=O)Nc2n[nH]c3sc(C(=O)NNc4ccccc4)cc23)cc1 [Example 1] | 8 | 8 | 177 | 117 |
| COC[C@@H]1CCCN1NC(=O)c1cc2c(NC(=O)c3ccc(N4CCN(C)CC4)cc3)n[nH]c2s1 [Example 29, N-(2-methoxymethylpyrrolidin-1-yl)-3-[4-(4-methylpiperazin-1-yl)benzoylamino]-1H-thieno[2,3-c]pyrazole-5-carboxamide] | 28 | 11 | 585 | 163 |
| CCN(NC(=O)c1cc2c(NC(=O)c3ccc(N4CCN(C)CC4)cc3)n[nH]c2s1)c1ccc(F)cc1 [Example 37, N-{5-[N′-ethyl-N′-(4-fluorophenyl)hydrazinocarbonyl]-1H-thieno[2,3-c]pyrazol-3-yl}-4-(4-methylpiperazin-1-yl)benzamide] | 32 | 20 | 54 | 56 |
| CN(NC(=O)c1cc2c(NC(=O)c3ccc(CN4CCNCC4)cc3)n[nH]c2s1)c1ccc(Cl)cc1 [Example 13b, N-{5-[N′-(4-chlorophenyl)-N′-methylhydrazinocarbonyl]-1H-thieno[2,3-c]pyrazol-3-yl}-4-piperazin-1-ylmethylbenzamide] | 182 | 85 | 49 | 324 |

Results, then the compound that gave them:

| IC50 (Aurora1) [nM] | IC50 (Aurora2) [nM] | IC50 (CDK2/cycline E) [nM] | IC50 (Tie2) [nM] | Structure (SMILES) |
| --- | --- | --- | --- | --- |
| 59 | 7 | 175 | 482 | CN(NC(=O)c1cc2c(NC(=O)c3ccc(CN4CCCCC4)cc3)n[nH]c2s1)c1ccccc1 [Example 17a, N-[5-(N′-methyl-N′-phenylhydrazinocarbonyl)-1H-thieno[2,3-c]pyrazol-3-yl]-4-piperidin-1-ylmethylbenzamide] |
| 259 | 101 | 138 | 543 | CCN(CC)CCNCc1ccc(C(=O)Nc2n[nH]c3sc(C(=O)NN(C)c4ccc(Cl)cc4)cc23)cc1 [Example 23b, N-{5-[N′-(4-chlorophenyl)-N′-methylhydrazinocarbonyl]-1H-thieno[2,3-c]pyrazol-3-yl}-4-[(2-diethylaminoethylamino)methyl]benzamide] |
| 114 | 12 | 210 | 623 | CCN(CC)Cc1ccc(C(=O)Nc2n[nH]c3sc(C(=O)NN(C)c4ccccc4)cc23)cc1 [Example 15a, 4-diethylaminomethyl-N-[5-(N′-methyl-N′-phenylhydrazinocarbonyl)-1H-thieno[2,3-c]pyrazol-3-yl]benzamide trifluoroacetate] |
